Reference: patent publication US11419875B2, “Compounds and compositions for treating hematological disorders” (Aurigene Discovery Technologies Limited, priority 2017, dated 2022)

Tests used:
[1] = system: MV4-11 cell line; assay: Anti-proliferative activity, MV4-11 cell line (Example 5, CellTiter Glo); format: cell-based; details: Homo sapiens, Example 5 procedure, 5,000 cells/well
Description: (§1) The same procedure was used for both the MV4-11 cells and MOLM-13 cells. Each cell line has an ITD mutation in the FLT-3 kinase.
(§2) The cells were grown to ˜80% confluence, split in half and grown overnight. The cells were seeded at a density of 5,000 cells/well in a volume of 150 μL into a 96-well black plate in all wells except columns 1 and 12 and rows A and H. They were incubated overnight in 10% serum and HBSS was added to wells on the periphery. In a deep 96-well plate, 1000 μL of 10% FBS was added into wells B2 and D2. 750 μL of 10% FBS, 1% DMSO medium per well was added in row B except well B2. 5 μL of 20 mM compound was added into well B2. 250 μL was transferred from column 2 to column 3 and mixed. The process was repeated until column G to give a 1:4 dilution. 15 μL of compound mixture was added to each well of the cell plate (135 μL volume).

[2] = system: MOLM-14 FLT3-ITD/F691L tumors; assay: MOLM-14 FLT3-ITD/F691L mouse xenograft tumor model; format: in vivo, athymic nude mice; details: 100 mg/kg orally once-daily, after 12 or 14 days of dosing
From the text: (§3) Compound A efficacy was compared to mice administered vehicle.

[3] = system: MOLM-14 FLT3-ITD/D835Y tumors; assay: MOLM-14 FLT3-ITD/D835Y mouse xenograft tumor model; format: in vivo, athymic nude mice; details: 100 mg/kg orally once-daily, after 12 or 14 days of dosing
From the text: as §3

[4] = system: MOLM-14 cell line (FLT3-ITD); assay: Cell viability assay (CellTiter-Glo, 72 h), parental MOLM-14; format: cell-based; details: Homo sapiens, mean of at least 3 assays
Description: (§4) The parental MOLM-14 cell line contained a FLT3-ITD mutation. Quizartinib-resistant MOLM-14 derivative cell lines MOLM-14 FLT3-ITD/D835Y and MOLM-14 FLT3-ITD/F691L contained a double FLT3 mutation (the original ITD mutation and a secondary mutation within the kinase domain).
(§5) All cells lines were cultured in RPMI 1640+GlutaMAX supplemented with 1× Pen-Strep and 10% FBS (referred to as media hereafter). Cells were cultured in 75 cm^2 or 225 cm^2 tissue culture flasks in a 37° C. humidified tissue culture incubator with 5% CO2. Cell densities were maintained between 0.5-2.0×10^6 cells/mL.
(§6) Two days before compound treatment, cells were pelleted and resuspended in fresh medium. The day of dosing, cells were counted and stained with trypan blue to determine cell viability. 5,000 viable cells were transferred in a volume of 90 μL or 135 μL per well to all wells of a 96-well tissue culture plate and returned to the tissue culture incubator. […]
(§7) After 72 h incubation, cell viability was assessed using the CellTiter-Glo Luminescent Cell Viability Assay (2.0) according to the vendor's instructions. […] Luminescence readings were measured using a TopCount384 instrument.
(§8) The percent inhibition of the compound treated samples was determined relative to the DMSO-treated cell control samples. […] The mean EC50 values from at least 3 independent viability assays performed on different days were determined.

[5] = system: MOLM-14 FLT3-ITD tumors; assay: MOLM-14 FLT3-ITD mouse xenograft tumor model; format: in vivo, athymic nude mice; details: 100 mg/kg orally once-daily, after 12 or 14 days of dosing
From the text: as §3

[6] = system: MOLM-14 FLT3-ITD/F691L; assay: Cell viability assay (CellTiter-Glo, 72 h), MOLM-14 FLT3-ITD/F691L; format: cell-based; details: Homo sapiens, mean of at least 3 assays
Description: as §4, §5, §6, §7, §8

[7] = system: MV4-11 cells; assay: AML xenograft model MV4-11, in vivo tumor growth inhibition
Description: ND-2158 at 100 mpk was used as a control.
MV4-11 cells were grown in Iscove's Modified Dulbecco's medium supplemented with 10% FBS and 1% penicillin streptomycin. To establish tumors, 15×10^6 MV4-11 cells were injected subcutaneously in 200 μl of 1:1 HBSS and ECM gel into the right flank of the athymic nude mice. Animals were randomized based on tumor volumes. […] Treatments were initiated when the average tumor volume sizes were 333 mm^3. Tumor volumes were measured three times a week and body weights were monitored daily.

[8] = system: MOLM-13 cell line; assay: Anti-proliferative activity, MOLM-13 cell line (Example 5, CellTiter Glo); format: cell-based; details: Homo sapiens, Example 5 procedure, 5,000 cells/well
Description: as §1, §2

[9] = system: MOLM-14 FLT3-ITD/D835Y; assay: Cell viability assay (CellTiter-Glo, 72 h), MOLM-14 FLT3-ITD/D835Y; format: cell-based; details: Homo sapiens, mean of at least 3 assays
Description: as §4, §5, §6, §7, §8

[10] = system: MV4-11 cells; assay: MV4-11 CellTiter Glo cell viability/proliferation assay (Example 2); format: cell-based; details: Homo sapiens, procedure of Example 2, read-out: IC50, inhibition of proliferation in MV4-11 cells
Description: The CellTiter Glo Luminescent cell viability assay is a highly sensitive homogenous assay to determine the number of viable cells in culture based on quantitation of ATP levels in metabolically active cells. Addition of CTG reagent results in cell lysis and generation of a luminescent signal proportional to the amount of ATP present. The amount of ATP is proportional to the number of cells present. The luminescence is measured using a multilabel reader capable of measuring luminescence. An increase or decrease in cell numbers results in a concomitant change in luminescene level, indicating the effect of the test material on cellular proliferation.
CellTiter-Glo buffer was thawed and equilibrated to room temperature. Lyophilized CellTiter-Glo substrate was brought to room temperature. CTG reagent is prepared by mixing the CellTiter-Glo buffer (Promega Cat #G7572) into an amber bottle containing CellTiter-Glo substrate to reconstitute the lyophilized enzyme/substrate mixture. Both Buffer and the lyophilized substrate are supplied with the kit.
Add 1% Penicillin Streptomycin and 10% FBS to commercially available liquid IMDM (Iscove's Modified Dulbecco's Medium, Invitrogen Cat #12440046).
1. MV4-11 cells were counted and re-suspended to a density of 0.1×10^6 cells/ml in complete IMDM medium. 95 μL of this cell suspension was added per well of a 96-well plate (black plate with clear bottom) to seed ˜0.1×10^5 cells per well. The plates were incubated at 37° C. under a humidified atmosphere of 5% CO2 for ˜2 hours before compound addition. 2. Test compounds were dissolved in 100% DMSO to generate a 2/6/10/20 mM stock solution. A 200× concentration of the required final concentrations was prepared in DMSO. 10 μL of each concentration (200×) was then diluted in 90 μL of serum-free IMDM to prepare an intermediate concentration of 20× in medium. The DMSO concentration in this step was 10% (Intermediate dilution). 5 μL of each intermediate dilution was then added in triplicates to cells previously seeded in 96-well plate. The final DMSO concentration was 0.5% in the experimental wells. Cells treated with 0.5% DMSO served as a positive control. 100 μL of complete IMDM medium served as media blank for data analysis. 200 μL of 1×PBS was added in all corner wells of the assay plate to avoid evaporation of media in experimental wells. Plates were then incubated for 72 hours in an incubator with 5% CO2 at 37° C. 3. To terminate the assay, 50 μL of CTG reagent was added to each well and the plate was incubated at room temperature for 15 minutes on a shaker. The plate was read using the luminescence mode on a multilabel reader capable of measuring luminescence. The luminescence values were plotted against respective concentrations of the test item using GraphPad Prism to calculate the IC50 value for the test item. Percent Inhibition is Calculated as Follows: […]
Positive control wells contained cells, IMDM medium and 0.5% DMSO. Blank control wells contained IMDM medium alone.

With `Cc1cc(-c2nc(C(=O)Nc3cc4oc(N5CCOCC5)nc4nc3N3CC[C@@H](O)C3)co2)ccn1` [Compound A] the IC50 [1] was 70 nM, the “percent tumor growth inhibition (% TGI)” value [2] was 73% and the “percent tumor growth inhibition (% TGI)” value [3] was 98%. The EC50 [4] was 58 nM, the “percent tumor growth inhibition (% TGI)” value [5] was 90% and the EC50 [6] was 2490 nM. The tumor growth inhibition ([7]; 12.5 mg/kg orally once daily, 21 days) was 92%, the tumor response ([7]; 25 mg/kg orally once daily, 21 days) was “partial tumor regression” and the tumor response ([7]; 50 mg/kg orally once daily, 21 days) was “partial tumor regression”. For the same compound, the “tolerability (clinical signs, gross pathological changes)” value ([7]; 12.5, 25, and 50 mg/kg orally once daily, 21 days) was “well tolerated without any treatment related clinical signs and gross pathological changes”, the tumor response ([7]; 12.5 mpk, after 21 days of treatment) was “Tumor growth stasis” and the body weight ([7]; all treatment groups, 21 days, FIG. 4) was “No body weight reduction was observed”. It also gave an IC50 [8] of 190 nM, an EC50 [9] of 108 nM and an IC50 [10] of 31 nM.
